Reference: BindingDB's records for doi:10.1016/j.ejmech.2017.05.048 (University of Auckland, 2017)

Assay: Inhibition of perforin (unknown origin)-mediated 51Cr-labelled human Jurkat cell lysis preincubated with protein for 30 mins followed by cell addition measured after 4 hrs by gamma counting method

| Structure (SMILES) | IC50 [µM] |
| --- | --- |
| COC(=O)c1ccccc1S(=O)(=O)Nc1cncc(-c2ccc(-c3ccc4c(c3)CN(C)C4=O)s2)c1 | 2.9 |
| CN1Cc2cc(-c3ccc(-c4cncc(NS(=O)(=O)c5cccc(Cl)c5F)c4)s3)ccc2C1=O | 13 |
| CN1Cc2cc(-c3ccc(-c4cncc(NS(=O)(=O)c5ccc(-c6cnco6)cc5)c4)s3)ccc2C1=O | 3.05 |
| CN1Cc2cc(-c3ccc(-c4cncc(NS(=O)(=O)c5ccccc5OC(F)(F)F)c4)s3)ccc2C1=O | 17.7 |
| CN1Cc2cc(-c3ccc(-c4ccc(OC(F)(F)F)c(NS(=O)(=O)c5ccccn5)c4)s3)ccc2C1=O | > 20 |
| CN1Cc2cc(-c3ccc(-c4cncc(NC(=O)c5ccc(F)cc5F)c4)s3)ccc2C1=O | > 20 |
| CN1Cc2cc(-c3ccc(-c4cncc(NS(=O)(=O)c5ccc(Cl)cc5)c4)s3)ccc2C1=O | 5.39 |
| CN1Cc2cc(-c3ccc(-c4cccc(S(=O)(=O)Nc5ccccn5)c4)s3)ccc2C1=O | 8.92 |
| CN1Cc2cc(-c3ccc(-c4cncc(NS(=O)(=O)c5cccc(Cl)c5)c4)s3)ccc2C1=O | 2.42 |
| CN1Cc2cc(-c3ccc(-c4cncc(NS(=O)(=O)c5cccc(C(F)(F)F)c5)c4)s3)ccc2C1=O | 1.22 |
| CN1Cc2cc(-c3ccc(-c4cncc(NS(=O)(=O)c5cccc(C#N)c5)c4)s3)ccc2C1=O | > 20 |
| CCOC(=O)c1ccc(S(=O)(=O)Nc2cncc(-c3ccc(-c4ccc5c(c4)CN(C)C5=O)s3)c2)cc1 | 19.4 |
| CN1Cc2cc(-c3ccc(-c4cncc(NS(=O)(=O)c5ccccc5[N+](=O)[O-])c4)s3)ccc2C1=O | 6.65 |
| Cc1ccc(S(=O)(=O)Nc2cncc(-c3ccc(-c4ccc5c(c4)CN(C)C5=O)s3)c2)cc1Cl | 8.14 |
| CN1Cc2cc(-c3ccc(-c4cncc(NS(=O)(=O)c5cccnc5)c4)s3)ccc2C1=O | 15.1 |
| CN1Cc2cc(-c3ccc(-c4cncc(NS(=O)(=O)c5ccc6c(c5)OCCO6)c4)s3)ccc2C1=O | > 20 |
| CN1Cc2cc(-c3ccc(-c4cncc(NS(=O)(=O)c5ccccc5F)c4)s3)ccc2C1=O | 2.03 |
| CN1Cc2cc(-c3ccc(-c4cc(NS(=O)(=O)c5ccccn5)ccc4F)s3)ccc2C1=O | > 20 |
| CN1Cc2cc(-c3ccc(-c4cnc(Cl)c(NS(=O)(=O)c5ccc(F)cc5F)c4)s3)ccc2C1=O | 1.03 |
| CN1Cc2cc(-c3ccc(-c4ccc(NS(=O)(=O)c5ccc(F)cc5F)nc4)s3)ccc2C1=O | > 20 |
| CN1Cc2cc(-c3ccc(-c4cncc(NS(=O)(=O)c5ccc(F)c(F)c5)c4)s3)ccc2C1=O | 18.6 |
| CN1Cc2cc(-c3ccc(-c4cncc(NS(=O)(=O)c5ccccc5Br)c4)s3)ccc2C1=O | 2.66 |
| CN1Cc2cc(-c3ccc(-c4cncc(NS(=O)(=O)c5ccc(I)cc5)c4)s3)ccc2C1=O | 5 |
| COc1ccc(S(=O)(=O)Nc2cncc(-c3ccc(-c4ccc5c(c4)CN(C)C5=O)s3)c2)cc1 | 6.27 |

| Structure (SMILES) | IC50 [µM] |
| --- | --- |
| COC(=O)c1cccc(S(=O)(=O)Nc2cncc(-c3ccc(-c4ccc5c(c4)CN(C)C5=O)s3)c2)c1 | 7.77 |
| CN1Cc2cc(-c3ccc(-c4cnc(F)c(NS(=O)(=O)c5ccccn5)c4)s3)ccc2C1=O | 4.1 |
| COc1ccc(-c2ccc(-c3ccc4c(c3)CN(C)C4=O)s2)cc1S(=O)(=O)Nc1ccccn1 | 9.68 |
| Cc1ccc(S(=O)(=O)Nc2ccccn2)cc1-c1ccc(-c2ccc3c(c2)CN(C)C3=O)s1 | > 20 |
| Cc1ccc(NS(=O)(=O)c2ccccn2)cc1-c1ccc(-c2ccc3c(c2)CN(C)C3=O)s1 | 15.4 |
| COc1ncc(-c2ccc(-c3ccc4c(c3)CN(C)C4=O)s2)cc1NS(=O)(=O)c1ccc(F)cc1F | 3.56 |
| CN1Cc2cc(-c3ccc(-c4cnc(F)c(NS(=O)(=O)c5ccc(F)cc5F)c4)s3)ccc2C1=O | 1.99 |
| CN1Cc2cc(-c3ccc(-c4cncc(S(=O)(=O)Nc5ccc(F)cc5F)c4)s3)ccc2C1=O | 2.24 |
| CN1Cc2cc(-c3ccc(-c4ccnc(NS(=O)(=O)c5ccc(F)cc5F)c4)s3)ccc2C1=O | 4.7 |
| CN1Cc2cc(-c3ccc(-c4cncc(NS(=O)(=O)c5ccc(F)cc5)c4)s3)ccc2C1=O | 9.65 |
| CN1Cc2cc(-c3ccc(-c4cncc(NS(=O)(=O)c5cccc(F)c5)c4)s3)ccc2C1=O | 20 |
| CN1Cc2cc(-c3ccc(-c4cncc(NS(=O)(=O)c5c(F)cc(F)cc5F)c4)s3)ccc2C1=O | 1.76 |
| CN1Cc2cc(-c3ccc(-c4cncc(NS(=O)(=O)c5ccc(Cl)c(Cl)c5)c4)s3)ccc2C1=O | 1.32 |
| CN1Cc2cc(-c3ccc(-c4cncc(NS(=O)(=O)c5ccc(Cl)cc5Cl)c4)s3)ccc2C1=O | 15 |
| CN1Cc2cc(-c3ccc(-c4cncc(NS(=O)(=O)c5cccc(Br)c5)c4)s3)ccc2C1=O | 2.11 |
| CN1Cc2cc(-c3ccc(-c4cncc(NS(=O)(=O)c5ccc(Br)cc5Br)c4)s3)ccc2C1=O | 2.87 |
| COc1ccccc1S(=O)(=O)Nc1cncc(-c2ccc(-c3ccc4c(c3)CN(C)C4=O)s2)c1 | 14.8 |
| COc1cccc(S(=O)(=O)Nc2cncc(-c3ccc(-c4ccc5c(c4)CN(C)C5=O)s3)c2)c1 | 2.56 |
| CN1Cc2cc(-c3ccc(-c4cncc(NS(=O)(=O)c5cccc(OC(F)(F)F)c5)c4)s3)ccc2C1=O | 1.42 |
| CN1Cc2cc(-c3ccc(-c4cncc(NS(=O)(=O)c5ccc(OC(F)(F)F)cc5)c4)s3)ccc2C1=O | > 20 |
| CN1Cc2cc(-c3ccc(-c4cncc(NS(=O)(=O)c5ccccc5C(F)(F)F)c4)s3)ccc2C1=O | 1.45 |
| CN1Cc2cc(-c3ccc(-c4cncc(NS(=O)(=O)c5ccc(C(F)(F)F)cc5)c4)s3)ccc2C1=O | > 20 |
| CN1Cc2cc(-c3ccc(-c4cncc(NS(=O)(=O)c5cc(C(F)(F)F)cc(C(F)(F)F)c5)c4)s3)ccc2C1=O | > 20 |
| CN1Cc2cc(-c3ccc(-c4cncc(NS(=O)(=O)c5ccccc5C#N)c4)s3)ccc2C1=O | 9.17 |

| Structure (SMILES) | IC50 [µM] |
| --- | --- |
| CN1Cc2cc(-c3ccc(-c4cncc(NS(=O)(=O)c5ccc(C#N)cc5)c4)s3)ccc2C1=O | 5.17 |
| COC(=O)c1ccc(S(=O)(=O)Nc2cncc(-c3ccc(-c4ccc5c(c4)CN(C)C5=O)s3)c2)cc1 | 8.16 |
| CN1Cc2cc(-c3ccc(-c4cncc(NS(=O)(=O)c5ccc(C(=O)O)cc5)c4)s3)ccc2C1=O | 0.75 |
| CN1Cc2cc(-c3ccc(-c4cncc(NS(=O)(=O)c5ccccc5S(C)(=O)=O)c4)s3)ccc2C1=O | 6.8 |
| CN1Cc2cc(-c3ccc(-c4cncc(NS(=O)(=O)c5ccc(S(C)(=O)=O)cc5)c4)s3)ccc2C1=O | > 20 |
| CN1Cc2cc(-c3ccc(-c4cncc(NS(=O)(=O)c5ccc([N+](=O)[O-])cc5)c4)s3)ccc2C1=O | 2.74 |
| Cc1cc(F)ccc1S(=O)(=O)Nc1cncc(-c2ccc(-c3ccc4c(c3)CN(C)C4=O)s2)c1 | 5.53 |
| CN1Cc2cc(-c3ccc(-c4cncc(NS(=O)(=O)c5ccc(F)c(C(F)(F)F)c5)c4)s3)ccc2C1=O | 3.75 |
| CN1Cc2cc(-c3ccc(-c4cncc(NS(=O)(=O)c5cc(Br)cc(C(F)(F)F)c5)c4)s3)ccc2C1=O | > 20 |
| CN1Cc2cc(-c3ccc(-c4cncc(NS(=O)(=O)c5ccccn5)c4)s3)ccc2C1=O | 1.07 |
| CN1Cc2cc(-c3ccc(-c4cncc(NS(=O)(=O)c5ccsc5)c4)s3)ccc2C1=O | 12.5 |
| CN1Cc2cc(-c3ccc(-c4cncc(NS(=O)(=O)c5ccc(-c6ccno6)s5)c4)s3)ccc2C1=O | 7.1 |
| Cc1cc(C)n(-c2ccc(S(=O)(=O)Nc3cncc(-c4ccc(-c5ccc6c(c5)CN(C)C6=O)s4)c3)cc2)n1 | 19.1 |
| Cc1ncsc1S(=O)(=O)Nc1cncc(-c2ccc(-c3ccc4c(c3)CN(C)C4=O)s2)c1 | 11.6 |
| CN1Cc2cc(-c3ccc(-c4cncc(NS(=O)(=O)c5ccccc5)c4)s3)ccc2C1=O | 8.46 |
| Cc1ccc(NS(=O)(=O)c2ccc(F)cc2F)cc1-c1ccc(-c2ccc3c(c2)CN(C)C3=O)s1 | > 20 |
| CN1Cc2cc(-c3ccc(-c4cncc(NS(=O)(=O)c5ccccc5Cl)c4)s3)ccc2C1=O | 4.01 |
| CN1Cc2cc(-c3ccc(-c4cncc(NS(=O)(=O)c5ccc(Br)cc5)c4)s3)ccc2C1=O | 8.77 |
| CN1Cc2cc(-c3ccc(-c4cccc(NS(=O)(=O)c5ccc(F)cc5F)c4)s3)ccc2C1=O | 5.74 |
| CN1Cc2cc(-c3ccc(-c4cncc(NS(=O)(=O)c5cccs5)c4)s3)ccc2C1=O | 1.07 |
| CN1Cc2cc(-c3ccc(-c4cncc(N(C)S(=O)(=O)c5ccc(F)cc5F)c4)s3)ccc2C1=O | 16.1 |
| CN1Cc2cc(-c3ccc(-c4cncc(NS(=O)(=O)c5ccc(C(F)(F)F)cc5Cl)c4)s3)ccc2C1=O | > 20 |
